This is an account of results in ChEMBL document CHEMBL5291721, “A preclinical secondary pharmacology resource illuminates target-adverse drug reaction associations of marketed drugs” (Nat Commun, 2023).

Structures are written as SMILES.

The target of test [1] is 5-hydroxytryptamine receptor 2B (Homo sapiens, UniProt P41595). The test is classed as functional, cell-based.
In another test the target is T1, Glucocorticoid receptor (Homo sapiens, UniProt P04150).
T1 sequence (P04150 whole entry): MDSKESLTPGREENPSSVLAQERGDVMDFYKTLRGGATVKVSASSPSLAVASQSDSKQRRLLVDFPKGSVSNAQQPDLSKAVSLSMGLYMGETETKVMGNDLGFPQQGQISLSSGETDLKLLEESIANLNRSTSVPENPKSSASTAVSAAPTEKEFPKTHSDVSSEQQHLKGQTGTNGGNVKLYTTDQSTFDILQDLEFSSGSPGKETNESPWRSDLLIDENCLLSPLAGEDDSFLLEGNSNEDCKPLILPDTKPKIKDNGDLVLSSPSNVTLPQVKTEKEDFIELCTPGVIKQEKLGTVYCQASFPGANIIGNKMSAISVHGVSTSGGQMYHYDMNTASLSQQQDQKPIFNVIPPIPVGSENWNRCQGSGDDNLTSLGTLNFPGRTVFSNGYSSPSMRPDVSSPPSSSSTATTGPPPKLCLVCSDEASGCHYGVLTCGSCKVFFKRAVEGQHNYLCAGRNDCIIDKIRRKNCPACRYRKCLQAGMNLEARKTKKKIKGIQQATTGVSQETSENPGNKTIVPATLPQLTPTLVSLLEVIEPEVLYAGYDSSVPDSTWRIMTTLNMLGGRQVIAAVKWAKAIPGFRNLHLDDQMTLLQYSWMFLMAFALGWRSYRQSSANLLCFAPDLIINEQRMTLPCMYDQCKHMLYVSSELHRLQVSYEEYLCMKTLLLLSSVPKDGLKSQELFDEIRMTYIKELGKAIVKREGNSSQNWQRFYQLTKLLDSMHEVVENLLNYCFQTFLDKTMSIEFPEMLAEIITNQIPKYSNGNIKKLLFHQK

The target of a further test is T2, Progesterone receptor (Homo sapiens, UniProt P06401).
T2 sequence (P06401 whole entry): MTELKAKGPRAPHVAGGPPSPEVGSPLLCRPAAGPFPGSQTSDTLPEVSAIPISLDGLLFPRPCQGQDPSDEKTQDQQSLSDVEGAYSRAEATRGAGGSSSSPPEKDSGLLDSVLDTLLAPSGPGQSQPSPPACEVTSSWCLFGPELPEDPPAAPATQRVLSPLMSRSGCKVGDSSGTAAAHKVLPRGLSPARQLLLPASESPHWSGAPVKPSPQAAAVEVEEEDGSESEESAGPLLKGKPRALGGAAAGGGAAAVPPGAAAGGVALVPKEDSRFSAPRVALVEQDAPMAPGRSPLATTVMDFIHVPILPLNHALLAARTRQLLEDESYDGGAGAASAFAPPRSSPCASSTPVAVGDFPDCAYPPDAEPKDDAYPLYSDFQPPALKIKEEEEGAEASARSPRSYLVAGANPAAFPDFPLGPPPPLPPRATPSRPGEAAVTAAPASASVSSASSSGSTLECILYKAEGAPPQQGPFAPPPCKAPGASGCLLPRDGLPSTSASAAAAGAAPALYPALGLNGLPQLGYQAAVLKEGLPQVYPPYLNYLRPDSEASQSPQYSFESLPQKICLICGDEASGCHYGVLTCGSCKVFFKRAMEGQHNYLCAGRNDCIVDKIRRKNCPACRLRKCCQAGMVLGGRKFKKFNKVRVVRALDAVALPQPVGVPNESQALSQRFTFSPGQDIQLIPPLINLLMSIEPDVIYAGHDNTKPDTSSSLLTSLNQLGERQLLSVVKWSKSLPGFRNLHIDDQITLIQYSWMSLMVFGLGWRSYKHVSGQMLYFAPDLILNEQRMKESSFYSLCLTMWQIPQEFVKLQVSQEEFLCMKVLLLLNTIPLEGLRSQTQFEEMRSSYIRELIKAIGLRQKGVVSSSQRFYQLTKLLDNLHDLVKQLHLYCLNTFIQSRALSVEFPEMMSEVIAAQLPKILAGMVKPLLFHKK
It is filed as functional.

Test [2] concerns the target T3, Alpha-1A adrenergic receptor (Homo sapiens, UniProt P35348).
T3 sequence (P35348 whole entry): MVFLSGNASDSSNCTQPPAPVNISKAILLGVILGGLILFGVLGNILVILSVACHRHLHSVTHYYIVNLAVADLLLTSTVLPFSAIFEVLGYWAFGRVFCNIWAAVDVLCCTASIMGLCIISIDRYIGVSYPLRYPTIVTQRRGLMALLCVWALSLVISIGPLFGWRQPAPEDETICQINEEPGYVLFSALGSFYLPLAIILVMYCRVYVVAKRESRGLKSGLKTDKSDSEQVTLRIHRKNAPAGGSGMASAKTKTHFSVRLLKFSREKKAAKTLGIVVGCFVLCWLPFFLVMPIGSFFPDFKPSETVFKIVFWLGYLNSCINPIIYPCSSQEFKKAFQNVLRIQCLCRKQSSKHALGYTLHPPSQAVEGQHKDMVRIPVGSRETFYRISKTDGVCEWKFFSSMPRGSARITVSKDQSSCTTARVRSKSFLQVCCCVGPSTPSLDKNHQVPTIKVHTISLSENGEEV
It is filed as functional, cell-based.

A further test concerns the target Histamine H1 receptor (Homo sapiens, UniProt P35367).
Test [3] concerns the target T4, Alpha-2B adrenergic receptor (Homo sapiens, UniProt P18089).
T4 sequence (P18089 whole entry): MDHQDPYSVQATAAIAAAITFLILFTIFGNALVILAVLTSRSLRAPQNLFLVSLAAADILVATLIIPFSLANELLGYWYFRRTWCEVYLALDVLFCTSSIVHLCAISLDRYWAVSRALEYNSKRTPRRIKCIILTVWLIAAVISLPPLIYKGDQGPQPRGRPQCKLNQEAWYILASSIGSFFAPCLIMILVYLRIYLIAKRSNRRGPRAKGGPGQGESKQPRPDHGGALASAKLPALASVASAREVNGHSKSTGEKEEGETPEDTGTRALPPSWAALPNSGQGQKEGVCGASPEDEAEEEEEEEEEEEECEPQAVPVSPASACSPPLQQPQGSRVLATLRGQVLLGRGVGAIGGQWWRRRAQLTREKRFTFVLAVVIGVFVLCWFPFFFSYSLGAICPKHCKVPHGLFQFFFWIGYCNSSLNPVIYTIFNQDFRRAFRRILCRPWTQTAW
Also: assay procedure not described here.

Chain of 5-hydroxytryptamine receptor 2B (P41595 whole entry): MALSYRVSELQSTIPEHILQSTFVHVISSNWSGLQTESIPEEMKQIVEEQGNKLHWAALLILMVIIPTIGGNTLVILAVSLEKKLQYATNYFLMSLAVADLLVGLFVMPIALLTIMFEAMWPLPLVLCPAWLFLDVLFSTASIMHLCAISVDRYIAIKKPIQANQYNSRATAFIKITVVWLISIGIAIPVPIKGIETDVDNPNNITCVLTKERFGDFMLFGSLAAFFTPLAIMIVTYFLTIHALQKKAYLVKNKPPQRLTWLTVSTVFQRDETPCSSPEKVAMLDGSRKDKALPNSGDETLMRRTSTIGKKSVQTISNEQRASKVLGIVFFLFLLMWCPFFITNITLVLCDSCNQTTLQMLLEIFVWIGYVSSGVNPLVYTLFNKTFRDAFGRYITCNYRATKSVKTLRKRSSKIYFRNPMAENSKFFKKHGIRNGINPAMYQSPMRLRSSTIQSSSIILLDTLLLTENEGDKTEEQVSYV
Chain of Histamine H1 receptor (P35367 whole entry): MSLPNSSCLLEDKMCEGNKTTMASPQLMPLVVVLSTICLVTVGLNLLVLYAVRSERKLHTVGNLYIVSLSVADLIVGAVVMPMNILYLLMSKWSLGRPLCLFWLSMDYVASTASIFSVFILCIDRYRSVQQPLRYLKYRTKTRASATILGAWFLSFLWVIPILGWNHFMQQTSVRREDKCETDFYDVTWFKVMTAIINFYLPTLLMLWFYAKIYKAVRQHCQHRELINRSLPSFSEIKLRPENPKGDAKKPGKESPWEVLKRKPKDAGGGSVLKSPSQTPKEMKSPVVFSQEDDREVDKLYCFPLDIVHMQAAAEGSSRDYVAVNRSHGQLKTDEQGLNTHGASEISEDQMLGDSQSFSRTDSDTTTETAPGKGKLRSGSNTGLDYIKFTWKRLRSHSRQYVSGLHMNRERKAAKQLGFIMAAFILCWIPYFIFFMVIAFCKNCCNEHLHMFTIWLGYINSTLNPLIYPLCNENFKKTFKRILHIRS

Regarding `CC(C)CN(C[C@@H](O)[C@H](Cc1ccccc1)NC(=O)O[C@H]1CCOC1)S(=O)(=O)c1ccc(N)cc1`, the AC50 in test [1] was > 10 µM; at Glucocorticoid receptor, > 10 µM; at Progesterone receptor, > 10 µM; in test [2], 12 µM.
On to `OCC(O)COc1ccc(Cl)cc1` (configuration not stated), for which the half-maximal activity concentration (AC50) (at Histamine H1 receptor; in test [1]; on Glucocorticoid receptor; on Progesterone receptor; in test [3]) was > 10 µM in each case.
As for `COc1cc(N)cn[n+]1-c1ccccc1` [AMEZINIUM METILSULFATE], the AC50 was > 30 µM at Histamine H1 receptor; > 30 µM in test [1]; > 30 µM on Progesterone receptor; 25 µM in test [2]; > 30 µM in test [3].
Turning to `COc1ccc(-n2nc(C(N)=O)c3c2C(=O)N(c2ccc(N4CCCCC4=O)cc2)CC3)cc1` [APIXABAN], the AC50 (on Histamine H1 receptor; in test [1]; at Progesterone receptor; in test [2]; in test [3]) was > 30 µM throughout.
As to `CNCCc1ccccn1` [BETAHISTINE], the concentration at half-maximal activity (AC50) (in test [1]; on Glucocorticoid receptor; at Progesterone receptor; in test [2]) was > 30 µM in each case.
Consider `CCCCOC(=O)c1ccc(N)cc1` [BUTAMBEN], for which the half-maximal activity concentration (AC50) (in test [1]; on Glucocorticoid receptor; on Progesterone receptor; in test [2]) was > 30 µM in each case.
Consider `CN(Cc1ccc(C(C)(C)C)cc1)Cc1cccc2ccccc12` [BUTENAFINE], for which the AC50 is > 10 µM in test [1], > 30 µM at Glucocorticoid receptor and > 30 µM at Progesterone receptor.
For the compound `CC(=O)OCC1=C(C(=O)O)N2C(=O)[C@@H](NC(=O)CSc3ccncc3)[C@H]2SC1` [CEPHAPIRIN], the AC50 is > 10 µM at Histamine H1 receptor; > 10 µM in test [1]; > 30 µM on Glucocorticoid receptor; > 30 µM on Progesterone receptor; > 10 µM in test [3].
`CC1=C(C(=O)O)N2C(=O)[C@@H](NC(=O)[C@H](N)C3=CCC=CC3)[C@H]2SC1` [CEPHRADINE]: the AC50 at Histamine H1 receptor is > 30 µM; in test [1] it was > 30 µM; on Glucocorticoid receptor, > 30 µM; on Progesterone receptor, 22 µM; in test [3] it was > 30 µM.
Regarding `Nc1nc(Cl)nc2c1ncn2[C@@H]1O[C@H](CO)[C@@H](O)[C@@H]1F` [CLOFARABINE], the concentration at half-maximal activity (AC50) (on Histamine H1 receptor; in test [1]; on Progesterone receptor; in test [3]) was > 30 µM each time.
Regarding `CC1CC(OC(=O)C(O)c2ccccc2)CC(C)(C)C1` (configuration not stated) [CYCLANDELATE], the AC50 in test [1] is > 10 µM; at Progesterone receptor, > 30 µM.
In the case of `CCCCCCOC(=O)NC(=N)c1ccc(NCc2nc3cc(C(=O)N(CCC(=O)OCC)c4ccccn4)ccc3n2C)cc1` [DABIGATRAN ETEXILATE], the half-maximal activity concentration (AC50) (on Histamine H1 receptor; in test [1]; at Progesterone receptor; in test [2]; in test [3]) was > 30 µM each time.
In the case of `COC(=O)[C@H]1[C@H]2C[C@@H]3c4[nH]c5ccccc5c4CCN3C[C@H]2C[C@@H](OC(=O)c2cc(OC)c(OC)c(OC)c2)[C@@H]1OC` [DESERPIDINE], the concentration at half-maximal activity (AC50) is > 10 µM on Histamine H1 receptor, > 10 µM in test [1], > 30 µM on Progesterone receptor and > 10 µM in test [3].
Take `CCc1ccc(C(=O)C(C)CN2CCCCC2)cc1` (configuration not stated) [EPERISONE]: the concentration at half-maximal activity (AC50) (in test [1]; at Glucocorticoid receptor; on Progesterone receptor; in test [2]) was > 30 µM in each case.
`CCC1(C)CC(=O)NC1=O` (configuration not stated) [ETHOSUXIMIDE]: the concentration at half-maximal activity (AC50) (in test [1]; at Glucocorticoid receptor; on Progesterone receptor) was > 10 µM each time.
Turning to `CCC(NC(C)C)C(O)c1ccc(O)c(O)c1` (configuration not stated) [ISOETHARINE], the AC50 (at Histamine H1 receptor; in test [1]; at Progesterone receptor; in test [3]) was > 30 µM each time.
As for `CC(=O)N1CCN(c2ccc(OCC3COC(Cn4ccnc4)(c4ccc(Cl)cc4Cl)O3)cc2)CC1` (configuration not stated) [KETOCONAZOLE], the figures for the AC50 (in test [1]; on Glucocorticoid receptor; at Progesterone receptor) were 15 µM, > 10 µM and > 10 µM, respectively.
As to `CN1CCC(=C2c3ccccc3CC(=O)c3sccc32)CC1` [KETOTIFEN], the AC50 in test [1] was 0.09 µM; at Glucocorticoid receptor, > 10 µM; on Progesterone receptor it was > 10 µM; in test [2] it was 15 µM.
Regarding `COc1nc(C)nc(Cl)c1N=C1NCCN1` [MOXONIDINE], the AC50 (in test [1]; at Glucocorticoid receptor; on Progesterone receptor) was > 30 µM each time.
Regarding `CC(C)(C)NCC(O)COc1cccc2c1CC(O)C(O)C2` (configuration not stated) [NADOLOL], the concentration at half-maximal activity (AC50) in test [1] is > 10 µM; on Glucocorticoid receptor it was > 10 µM; on Progesterone receptor, > 10 µM; in test [2], 7.7 µM.
Take `CN1CCCN=C1/C=C/c1cccc(O)c1` [OXANTEL]: the AC50 was > 30 µM in test [1]; > 30 µM at Glucocorticoid receptor; 10 µM at Progesterone receptor; > 30 µM in test [2]; > 30 µM in test [3].
As for `Nc1ccc(S(=O)(=O)Nc2ncccn2)cc1` [SULFADIAZINE], the AC50 (in test [1]; at Progesterone receptor) was > 10 µM throughout.
Turning to `CCCCOC(=O)C(=O)Nc1cccc(-c2nnn[nH]2)c1` [TAZANOLAST], the AC50 (at Histamine H1 receptor; in test [1]; at Progesterone receptor; in test [2]; in test [3]) was > 30 µM each time.
Take `CC(C(=O)O)c1ccc(C(=O)c2ccccc2)s1` (configuration not stated) [TIAPROFENIC ACID]: the AC50 was > 10 µM in test [1], > 10 µM at Progesterone receptor, > 30 µM in test [2] and > 10 µM in test [3].
For the compound `Cc1cccc(Nc2ccncc2S(=O)(=O)NC(=O)NC(C)C)c1` [TORSEMIDE], the AC50 (in test [1]; on Glucocorticoid receptor; at Progesterone receptor) was > 10 µM each time.
As to `CCN(C(C)=O)c1cccc(-c2ccnc3c(C#N)cnn23)c1` [ZALEPLON], the AC50 in test [1] was > 10 µM; on Progesterone receptor, > 30 µM; in test [2] it was > 30 µM.
